The source of these data is patent US10517952B2, “Nucleophile-triggered degradable materials and methods of making and using the same” (GEORGIA TECH RESEARCH CORPORATION, priority 2014, dated 2019).

What all share (type): physicochemical
Data set [1] in a line: Equilibrium swelling, gel fraction and Mc (Flory-Rehner) of PEG-OND hydrogels. The settings on record: for Mc (apparent molecular weight between elastic crosslinks): calculated with the Flory-Rehner equation from swelling results; for Gel Fraction: mass of dry residue post-swelling/input mass of OND and 4-PEG-SH; for Equilibrium Swelling Ratio: mass post-swelling/mass pre-swelling, deionized water, 4° C., 24 hours, n = 3 gels. The procedure:
The swelling of the PEG-OND hydrogels in deionized water was measured at 4° C. to prevent significant fragmentation during the experiment. […] An independent experiment measuring soluble fraction thiol content yielded results complementing those obtained gravimetrically (Table S3, and related discussion below). With the knowledge that small molecules can readily permeate swollen PEG-OND hydrogels (see below), detecting and modifying residual thiols in gels prepared from divalent linkers 7a and 8 by swelling in the presence of a fluorogenic OND derivative was attempted (FIG. 15, and related discussion below).
200 μL gels were prepared in pH 7.4 100 mM phosphate buffered saline containing 7% DMSO with 3.5 wt % 4-PEG-SH and the corresponding bis-, tris-, and tetra-ONDs to provide a 1:1 thiol to electrophile ratio, and allowed to cure for 20 minutes at room temperature. The mass of the gels after curing was recorded (Meq) before suspending in 5.5 mL of water. The hydrogels were stored at 4° C. during swelling to prevent significant degradation of the network during the experiment. The increase in mass of the gels was monitored periodically by decanting and blotting the gel gently with a kimwipe to remove excess water before weighing. After 24 hours swelling, when swelling had stabilized, the mass of the gel was recorded (Meq). The equilibrium mass swelling ratio was then determined using the following relationship:
After weighing equilibrium-swelled gels to determine equilibrium mass swelling ratio, the gels were freeze-dried and the residual mass was weighed (Mres). It is expected that buffer salts present in the sample when it was formed were removed by the multiple changes of swelling solvent (pure water). The mass of the remaining residue was compared to the input mass (Min) of 4-PEG-SH macromer and OND-based linker. The ratio of the residual mass and the input mass provides the fraction of material by mass incorporated into the hydrogel network (gel fraction), as shown in the following equation: […]
The apparent molecular weight between elastically-productive crosslinks (Mc) was determined from equilibrium swelling data, collected as described in section VII.1 and applying a modified form of the Flory-Rehner equation for networks formed under dilute conditions:
[formula] where Mn is the number average molecular weight for the polymeric macromer (10,000 g/mol), v is the specific volume of the polymer ([…] for PEG) V1 is the molar volume of solvent used for swelling ([…] for water), χ is the polymer-interaction parameter (0.43 for PEG-H2O and assumed constant for the described experiments). V2, and V2, are the volume fraction of polymer in the equilibrium swollen gel and the relaxed gel after curing, respectively, and are calculated as follows:
[formula] where qw is the weight swelling ratio after equilibrium swelling, qF is the weight swelling ratio after curing, ρp is the density of the polymer (1.12 g/cm^3 for PEG), ρwater=ρcure solvent is the density of swelling solvent and solvent during gel formation (1.00 g/cm^3 for water). The weight swelling ratios qw and qF are determined from data gathered in equilibrium swelling experiments using the following relationships:
[formula] where ms is the mass of the gel after equilibrium swelling, mc is the mass of the gel after curing, and md is the mass of the dried gel, or input mass of polymer and crosslinkers.
Using the formulae above, masses of hydrogel samples recorded after equilibrium swelling, curing, and drying were applied to estimate the apparent molecular weight between crosslinks, which are summarized in Table 1 of the main text. The experimentally observed Mc values for gels formed using divalent OND linkers was lower than theoretical ideal value Mc,ideal. This can be explained by the fact that the Mc,ideal values calculated for these gels (entries 1-5 of Table S1) are greater than the entanglement molecular weight for polyethylene glycol (˜4,400 g/mol). […]

A short description of data set [2]: Erosion of swollen hydrogels (BODIPY erosion probe, time-lapse photography). Conditions: 37° C., erosion probe. The text has this:
Degradation behavior of PEG-OND hydrogels under swelling conditions was investigated by labeling 3% of the 4-PEG-SH thiols with a BODIPY fluorophore via maleimide coupling before gelation. Gels prepared from this material are expected to have slightly lower crosslink densities and to degrade sooner when compared to gels formed without the erosion probe (FIG. 19). However, the probe-labeled macromer allowed convenient monitoring and comparison of erosion behavior under conditions relevant for biological applications. An increase in absorbance (504 nm) of the swelling buffer was observed as pieces containing the labeled PEG-thiol components were detached from the gel by rDA fragmentation (FIG. 2). […] Using combinations of linkers, it was possible to produce hydrogels with release profiles tuned between those of gels prepared from a single linker (FIG. 2C).
The 3.76 wt % solution of BODIPY-labeled 4-PEG-SH prepared above was used to form hydrogels using a method identical to unlabeled gels. Briefly, BODIPY-labeled 4-PEG-SH was combined with DMSO stocks of multivalent ONDs at equimolar concentration of thiol and electrophile. […] The absorbance of the supernatant at 504 nm was measured immediately to obtain a baseline measurement (t=0 hours), and the samples were placed into a 37° C. incubator. The absorbance of the swelling supernatant was monitored periodically by removal of 1 mL of buffer into a cuvette and measuring absorbance of the sample at 504 nm. […] This process was repeated for each sample until gel degradation was complete and the absorbance at 504 nm stabilized (100% dye released). In order to estimate the fraction of dye released from the non-degradable gel formed with bi s-EONB 8, a mock endpoint sample consisting of BODIPY-labeled 4-PEG-SH diluted to 3.5 wt % was prepared, and the absorbance at 504 nm was measured. […] The absorbance values collected over the course of the experiment were divided by the absorbance value measured after gel disintegration to obtain fractional dye release versus time. […]
The time at which the glass bead reached the bottom of the tube was recorded. […]

Data set [3] in a line: Calculation of hydrogel mesh size from equilibrium swelling data. The settings on record: equilibrium-swollen gels. On the procedure:
Using the calculated molecular weight between crosslinks, Mc, and the method previously described by Canal and Peppas, the hydrogel mesh size was calculated. First, the root-mean-square end-to-end distance of the polymer chains in the network, (r0^2)^1/2, was calculated as follows: (r0^2)^1/2=lCn^1/2n^1/2 (Equation S10) where l is the average bond length in the polymer (0.146 nm for PEG) and Cn is the characteristic ratio of the polymer (4.0 for PEG). The average number of bonds between crosslinks, n is calculated using the following equation:
[formula] where Mc is the average molecular weight between crosslinks, calculated as described in the previous section, and Mr is the molecular weight of the repeating unit for the PEG macromer (44 g/mol). Finally, the mesh size, ξ, is calculated using the following relationship: ξ=v2,s^−1/3(r0^2)^1/2 (Equation S12) where v2, is the partial volume of polymer in the equilibrium swollen hydrogel, and is calculated using the experimentally determined equilibrium weight swelling ratios.

For `COC(=O)C1=C(C(=O)OC)C2(CNC(=O)CC(O)(CC(=O)NCC34C=CC(O3)C(C(=O)OC)=C4C(=O)OC)C(=O)NCC34C=CC(O3)C(C(=O)OC)=C4C(=O)OC)C=CC1O2` (stereo not shown) [Linker 11, Tetramethyl 1,1′-(((2-(2-(((2,3-bis(methoxycarbonyl)-7-oxabicyclo[2.2.1]hepta-2,5-dien-1-yl)methyl)amino)-2-oxoethyl)-2-hydroxysuccinyl)bis(azanediyl))bis (methylene))bis(7′-oxabicyclo[2.2.1]hepta-2,5-diene-2,3-dicarboxylate)], in data set [1], the “Mc (apparent molecular weight between elastic crosslinks)” value is on record as 3846 ± 102 g/mol, the “Gel Fraction” value turned out to be 0.98 ± 0.08 and the “Equilibrium Swelling Ratio” value is reported as 1.54 ± 0.07. Moreover, in data set [2], the “Gel stability under swelling conditions compared with gels from divalent ONDs” value is given as “more stable gels”. Further, the Calculated mesh size in data set [3] is recorded as 13.7 ± 1.3 nm.
On the same counts, the results for `COC(=O)C1=C(C(=O)OC)C2(CNC(=O)CCOCC(COCCC(=O)NCC34C=CC(O3)C(C(=O)OC)=C4C(=O)OC)(COCCC(=O)NCC34C=CC(O3)C(C(=O)OC)=C4C(=O)OC)COCCC(=O)NCC34C=CC(O3)C(C(=O)OC)=C4C(=O)OC)C=CC1O2` (stereo not shown) [Linker 12, Tetramethyl 1,1′-(8,8-bis((3-(((2,3-bis(methoxycarbonyl)-7-oxabicyclo[2.2.1]hepta-2,5-dien-1-yl)methyl)amino)-3-oxopropoxy)methyl)-3,13-dioxo-6,10-dioxa-2,14-diazapentadecane-1,15-diyl)bis(7-oxabicyclo[2.2.1]hepta-2,5-diene-2,3-dicarboxylate)] are 3740 ± 95 g/mol, 0.96 ± 0.05, 1.44 ± 0.08, “more stable gels” and 13.3 ± 0.9 nm.
